Reference: patent US11357786B2, “Synthetic disugar hydrocarbons as natural analogs to control microbial behaviors” (Syracuse University, priority 2014, dated 2022)
Entries after “also recorded” stand apart in the source; their conditions may differ. Read-outs that look alike come from different tables or passages of the source.

Columns and labels:
[1] = system: nonswarming P. aeruginosa mutant rhlA; experiment: Swarming motility of nonswarming rhlA mutant on soft agar (reactivation / agonist assay); format: cell-based, Pseudomonas aeruginosa; details: for Reactivation of swarming motility of rhlA mutant: concentration not given; for Swarming reactivation of rhlA mutant: 110 μM in soft agar; for Concentration that suppresses reactivation of rhlA swarming by DβC: co-administered with 40 μM DβC
Procedure, shortened: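 rhlA transposon mutant of PAO1 (3 μl, OD600 0.4–0.6) inoculated on M8 soft agar (0.2% glucose, 0.5% casamino acids, 1 mM MgSO4, 0.5% agar) with test compound to find swarming agonists. Incubated 12 h at 37 °C plus 12 h at room temperature; swarm area measured by weighing paper cut-outs of imaged swarms.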

1-day old PAO1 biofilm = experiment: Crystal violet assay for dispersion of 1-day old biofilm, DSHs (Examples 2 and 4); format: cell-based, Pseudomonas aeruginosa
Description: The effect that DSHs have on the adhesion of PAO1-EGFP on polystyrene surface (microtiter plate) was also examined. PAO1-EGFP is a P. aeruginosa strain that constitutively expresses green fluorescent protein. In the adhesion assays, PAO1-EGFP was grown in microtiter plate for 24-hours in LB-media with (160 μM) or without DSHs. After 24-hours, the fluorescent signal obtained from surface adhered PAO1-EGFP was measured. Percent reduction in fluorescence was calculated by comparing fluorescent signal from PAO1-EGFP grown in LB-media with the signal from wells that had DSHs (FIG. 29A). To study the effect of DSHs on biofilm formation, Pseudomonas aeruginosa (PAO1) was grown in LB-media with (160 μM) or without DSHs at 37° C. under static conditions within wells of microtiter plates. After 24 hours, the surface attached biofilms adhering to the bottom of the wells were stained with crystal-violet dye and the biofilm was quantified by measuring absorbance at 600 nm (OD600). The percent inhibition was calculated by comparing biofilm content of wells with no added agents (control) with the biofilm content from wells that had 160 μM of DSHs (FIG. 29A). Similar to inhibition, the surface attached biofilm after dispersion with DSHs was quantified with crystal-violet staining and absorbance measurement at 600 nm, except that for dispersion, biofilm was first grown for 1 day in just LB-media without any DSHs after which DSHs were added and plates were incubated for additional 24 hours followed by quantification (FIG. 29B).
Crystal violet based assay for quantifying dispersion of 1-day old PAO1 biofilms were Plate for set up similar to inhibition assay with a slight modification. Wells of the micro-titer plate was inoculated with (200 μL) bacterial subculture (PAO1 subculture OD600 ˜0.1). The plates were incubated at 37° C. for 24 hours to allow biofilm formation. After 24 hours, bacterial culture was gently pipetted out and appropriate volume of DSH were added followed by addition of fresh LB medium (200 μL). The microtiter plate was incubated for an additional 24 hours at 37° C., following which, similar to work up of inhibition assay, culture was removed, wells were washed and CV-dye was introduced, followed by washing and destaining with 30% AcOH solution in water and quantification at 600 nm. Here again, only the surface attached biofilm dispersed was reported by comparing wells with DSHs with wells with no agent.
Dose dependence assays for biofilm inhibition and dispersion. […] Both for biofilm inhibition and dispersion, predetermined volumes of DSH stocks were added to the assigned wells to span a concentration range between 0.5 μM-170 μM. Percent biofilm inhibition of dispersion was calculated by comparing to wells with no agent. The percent biofilm inhibition or dispersion was plotted versus concentration of DSHs. The linear values were logarithmically curve fitted using equation […]. The half maximal inhibitory concentration for both biofilm inhibition and dispersion (IC50 and DC50) were thus obtained.

[2] = 85 μM in soft agar (0.5%), 24 h
[3] = Example 2, FIG. 20, read-out: Biofilm dispersion DC50
[4] = Example 4, FIG. 31, read-out: Half-maximal dispersion concentration (DC50)

## CCCCCCCCCCCCOCCOCCOCCOCCO [C12EG4OH, tetra (ethylene glycol) monododecyl ether, reference compound]
[1]
  Reactivation of swarming motility of rhlA mutant: do not reactivate the swarming motility; also recorded: did not promote or reactivate
[1]; listed as C12EG5OH
  Reactivation of swarming motility of rhlA mutant: did not incur any bioactivity

## CCCCCCCCCCCCOS(=O)(=O)[O-].[Na+] [SDS, sodium dodecyl sulfate, reference compound]
[1]; sulfate
  Reactivation of swarming motility of rhlA mutant: do not reactivate the swarming motility; also recorded: did not incur any bioactivity; also recorded: did not promote or reactivate

## CC(C)CCCC(C)CCCC(C)CCO[C@H]1O[C@H](CO)[C@@H](O[C@@H]2O[C@H](CO)[C@@H](O)[C@H](O)[C@H]2O)[C@H](O)[C@H]1O (stereo partly drawn) [SFαC (13), saturated farnesyl-α-cellobioside]
[1]; [2]
  Swarming motility of rhlA mutant: no apparent effect on rhlA
[1]; 24 h
  Swarming reactivation of rhlA mutant: incapable of reactivating the swarming
1-day old PAO1 biofilm; [3]
  DC50: ~78.4 µM
1-day old PAO1 biofilm; [4]
  DC50: ~89 µM

## CC(C)CCCC(C)CCCC(C)CCO[C@@H]1O[C@H](CO)[C@@H](O[C@@H]2O[C@H](CO)[C@@H](O)[C@H](O)[C@H]2O)[C@H](O)[C@H]1O (stereo partly drawn) [SFβC (12), saturated famesyl-β-cellobioside]
[1]; 20 μM
  Swarming motility of rhlA mutant: did not activate the swarming motility
[1]; [2]
  Swarming motility of rhlA mutant: no apparent effect on rhlA
[1]; 24 h, listed as 12: SFbC
  Swarming reactivation of rhlA mutant: does not reactivate the swarming of rhlA mutant
[1]; 24 h, listed as 12: SFβC
  Swarming reactivation of rhlA mutant: incapable of reactivating the swarming
[1]
  Concentration that suppresses reactivation of rhlA swarming by DβC: 20 µM
[1]; listed as SFβC
  Concentration that suppresses reactivation of rhlA swarming by DβC: ≤ 20 µM
[1]; soft agar
  Concentration of activity reversal for swarming promotion of rhlA mutant (transition concentration): ~8 µM
[1]; soft agar, 24 h
  Concentration range in which swarming of rhlA is reactivated: 5-12 W
[1]; soft agar, listed as 12
  Concentration of activity reversal for swarming promotion of rhlA mutant (transition concentration): 8 µM
[1]; with 40 μM DβC
  Concentration up to which there is no interference with swarming reactivation of rhlA by DβC: up to 10 μM
1-day old PAO1 biofilm; [3]
  DC50: ~36.4 µM
1-day old PAO1 biofilm; [4]
  DC50: ~44 µM

## CC(C)CCCC(C)CCCC(C)CCO[C@@H]1O[C@H](CO)[C@@H](O[C@H]2O[C@H](CO)[C@@H](O)[C@H](O)[C@H]2O)[C@H](O)[C@H]1O (stereo partly drawn) [SFβM (14), saturated farnesyl-β-maltoside]
[1]; 10 μM, 24 h
  Swarming area of rhlA: ~14 cm2
[1]; [2]
  Swarming motility of rhlA mutant: no apparent effect on rhlA
[1]; 24 h
  Swarming reactivation of rhlA mutant: incapable of reactivating the swarming
[1]; soft agar
  Concentration of activity reversal for swarming promotion of rhlA mutant (transition concentration): ~10 µM
[1]; soft agar, listed as 14
  Concentration of activity reversal for swarming promotion of rhlA mutant (transition concentration): 10 µM
1-day old PAO1 biofilm; [4]
  DC50: ~126 µM
